From PMC9714921 (PLOS Pathogens, 2022)

Columns and labels:
[1] = tested on: Tzc-ACR-16-REM; assay: Voltage-clamp electrophysiology, coding-sequence modified ACR-16 in oocytes; type: cell-based, T. callipaeda; conditions: B. malayi ric-3 co-injected; agonist not named in the legend (ACh by the matching native values)
Protocol: (§1) B. malayi acr-16 and accessory proteins ric-3, unc-50, unc-74 and molo-1 were cloned from adult female B. malayi cDNA received as a gift from Dr. T. Geary using the primers described in S1 Table. B. malayi eat-18 was prepared from two overlapping oligonucleotide primers. Other subunits were synthesized from their predicted genome sequence (Gene Universal, USA) (S2 Table). […] All sequences were cloned into the pTD2 oocyte expression vector. Asu-ACR-16 and Tzc-ACR-16 chimeras were constructed using appropriate restriction enzymes, reciprocal exchange through ligation and confirmed by sequencing (McLab, USA).
(§2) cRNA for oocyte injection was prepared with the mMESSAGE mMACHINE T7 kit following manufacturers protocol (Ambion, USA). Concentration was determined using a Nanodrop spectrophotometer. Desired subunit combinations with associated accessory proteins were mixed and diluted with nuclease-free water to a final concentration of 250 ng/uL for each construct.
Adult female X. laevis oocyte extraction was performed in accordance with the McGill University Animal Use Protocol 2015–7758 following standard protocol. […] All electrophysiology was conducted two days post-injection, except for the expression analysis assay in which oocytes were measured every day after injection for three consecutive days. […]

[2] = tested on: C. elegans N-AChR; parameters: method as in Charvet et al., 2018 [40]; conditions: read-out: EC50 μM ACh; accessory protein Ric-3; ref Charvet et al., 2018 [40]; cited from earlier work
[3] = tested on: P. equorum N-AChR; conditions: read-out: EC50 μM ACh; accessory protein Ric-3; ref [40]; cited from earlier work
[4] = tested on: TZC-ECD (T. callipaeda ECD in Asu-ACR-16); assay: Voltage-clamp electrophysiology, A. suum/T. callipaeda ACR-16 chimera in oocytes; type: cell-based; conditions: S2C Fig
Protocol: as §1, §2
(§3) Adult female X. laevis oocyte extraction was performed in accordance with the McGill University Animal Use Protocol 2015–7758 following standard protocol. Briefly, frog ovary lobes were placed in a Ca^2+-free OR2 solution (82 mM NaCl, 2 mM KCl, 1 mM MgCl2, 5 mM HEPES buffer, pH 7.3) and manually divided into clusters of <10 oocytes with thin tweezers followed by a 90-minute incubation in 10 mg/mL collagenase type II (Sigma-Aldrich, USA). Oocytes were washed in Ca^2+-free OR2 and placed ND96 solution (NaCl 96 mM, KCl 2 mM, CaCl2 1.8 mM, MgCl2 1 mM and HEPES 5 mM, pH 7.3) supplemented with sodium pyruvate 2.5 mM [86] and incubated at 18°C until cRNA injection. Oocytes were injected with 50 nL (12.5 ng of each injected gene) of the desired cRNA subunit and accessory protein combination mix with the NanojectII (Drummond Scientific, USA). Following injection, oocytes were incubated in ND96 buffer at 18°C until electrophysiology. All electrophysiology was conducted two days post-injection, except for the expression analysis assay in which oocytes were measured every day after injection for three consecutive days.
(§4) All drugs were dissolved in recording solution (NaCl 100 mM, KCl 2.5 mM, CaCl2 1 mM, HEPES 5 mM, pH 7.3) to a stock concentration of 10 mM and diluted to their final recording concentrations. Oxantel and bephenium were first dissolved in DMSO to ensure a final recording concentration contained less than 0.1% DMSO. For agonist profiling, all drugs were diluted to a concentration of 100 μM.
(§5) Oocytes were placed individually in an RC3Z chamber (Harvard Apparatus, USA) submerged in recording solution (NaCl 100 mM, KCl 2.5 mM, CaCl2 1 mM, HEPES 5 mM, pH 7.3). The RC3Z chamber was connected to a perfusion system containing recording solution and ligand solutions. Pulled glass capillaries (World Precision Instruments, USA) were filled with 3M KCl and the tips clipped and checked for appropriate resistance (between 0.5 and 5 MΩ). A 3M KCl agar bridge grounded the oocyte bath chamber. Measurements were made using an Axon Axoclamp 900A amplifier with Digidata1550M. […] Ligand solutions were applied to the oocytes with an approximate flow rate of 1.2 m/s and current responses measured. Oocytes were exposed to the ligand solution until a distinct current peak was observed followed by a wash with the recording solution until current returned to baseline for a minimum of 10 seconds until the next ligand exposure. For BAPTA-AM exposed oocytes, oocytes were incubated in 100 μM BAPTA-AM for four hours prior to electrophysiology recording. Data was analyzed using Clampex 9.2 (Axon Instruments, USA) and statistical analysis and graphs produced in Prism (GraphPad version 9.1). T-tests were used to compare responses with error bars representing standard error. For concentration-response curves, individual oocyte current response to the different ligand concentrations were normalized to the response obtained with 300 μM.

[5] = tested on: ASU-TM (A. suum TM regions in Tzc-ACR-16); assay: as above; type: cell-based; conditions: S2C Fig
Protocol: as §1, §2, §3, §4, §5

[6] = tested on: ASU-ICL (A. suum ICL in Tzc-ACR-16); assay: as above; type: cell-based; conditions: S2C Fig
Protocol: as §1, §2, §3, §4, §5

[7] = tested on: ASU-ECD (A. suum ECD in Tzc-ACR-16); assay: as above; type: cell-based; conditions: S2C Fig
Protocol: as §1, §2, §3, §4, §5

[8] = tested on: TZC-ICL (T. callipaeda ICL in Asu-ACR-16); assay: as above; type: cell-based; conditions: S2C Fig
Protocol: as §1, §2, §3, §4, §5

[9] = tested on: TZC-TM (Tzc-TM region in A. suum ACR-16); assay: as above; type: cell-based; conditions: S2C Fig
Protocol: as §1, §2, §3, §4, §5

[10] = tested on: T. muris N-AChR; conditions: read-out: EC50 μM ACh; accessory protein Ric-3; ref [35]; cited from earlier work

## CC(=O)OCC[N+](C)(C)C [ACh, acetylcholine]
[1]
  current response: 587 ± 415 nA
[2]
  EC50: 22 ± 1.2 µM
[3]
  EC50: 6.4 ± 0.6 µM
[4]
  response to ACh: 42 ± 9 nA
[5]
  response to ACh: 24 ± 8 nA
[6]
  response to ACh: 2237 ± 98 nA
[7]
  response to ACh: 1819 ± 115 nA
[8]
  response to ACh: 1959 ± 78 nA
[9]
  response to ACh: 2917 ± 105 nA
[10]
  EC50: 31.1 ± 0.3 µM
